≈ marks a conversion by molar mass, not a printed value. Where two headings read alike, the source gives them in different places.
Legend:
[1] = test system: Vibrio parahaemolyticus 4387-61 and Vibrio parahaemolyticus T4144-1; assay: antibacterial and bactericidal action to Vibrio; format: cell-based
Experimental: (1) Vibrio parahaemolyticus 4387-61 or Vibrio parahaemolyticus T4144-1 (both stored at National Institute of Hygienic Sciences) was inoculated to make 10^6 cells/ml to a trypto-soya bouillon medium (manufactured by Nissui) containing […], 3.13 or 1.56 μg/ml of the cyclopentenone and a stationary incubation was conducted at 37° C. for 24 hours.
The culture (50 μl) where no growth of the microorganism was noted was spread on 20 ml of a trypto-soya bouillon agar medium containing no cyclopentenone and incubation was conducted at 37° C. for 24 hours. The result was that, in any of the strains, no growth of microorganism was noted on the agar medium on which a fraction (to which 50 μg/ml or more cyclopentenone was added) was spread.

Meth A cells = assay: anticancer action to solid cancer, Meth A; format: in vivo, female BALB/c mice; conditions: 5 mg/kg/day s.c., five days
Experimental: The cyclopentenone mentioned in Example 3-(1) was diluted with a physiological saline solution to certain concentrations and the following tests were conducted.

[2] = test system: Legionella pneumophila (isolated from bathtub water of hot spring); format: cell-based; conditions: 12 ppm, common logarithm
Sarcoma-180 = assay: life-prolonging effect, intraperitoneal Sarcoma-180; format: in vivo, female mice of ICR strain; conditions: intraperitoneal tumor
[3] = test system: Campylobacter jejuni A3309; assay: antibacterial action to Campylobacter; format: cell-based; conditions: 37° C., 48 hours, read-out: concentration at which no growth of the microorganism was noted
Experimental: (2) Campylobacter jejuni A3309 (stored at the Institute of Hygienic Sciences) was inoculated to a brain heart infusion medium (manufactured by Difco) containing 2% of calf serum (manufactured by Dainippon Seiyaku) and subjected to a shake preincubation at 37° C. for 16 hours. The culture (50 μl) was spread on 20 ml of 0.5% NaCl-containing Muller-Hinton plate medium (manufactured by BBL) containing 800, 400, 200, 100, 50, 25, 12.5, 6.25, 3.13 or 1.56 μg/ml of cyclopentenone and subjected to a stationary incubation at 37° C. for 48 hours.

mice = conditions: oral, 100 mg/kg
[4] = test system: Candida albicans TIMM 0136; assay: antimicrobial activity to fungi; format: cell-based; conditions: high concentrations
[5] = test system: Lactobacillus homohiochii (IFO 13120); assay: antibacterial activity to hiochi bacteria, microorganism C; format: cell-based; conditions: five days; for Growth Turbidity (OD600): control 1.61
Experimental: (§1) The testing microorganism was subjected to a stationary incubation for five days in an SI medium (Japan Brewery Association) containing 10% of ethanol to give a seed microorganism. The seed microorganism (0.1%) was added to 100 ml of 10% ethanol-containing SI medium to which the cyclopentenone was added in an amount of 0, 25, 50, 75 or 100 μg/ml (in terms of final concentration), then a stationary incubation was conducted for five days and the turbidity was measured. In measuring the turbidity, the value of OD600 was measured using an absorbance meter. A value of OD600 of the medium to which no testing microorganism was inoculated was deducted from the above value and this (growth turbidity) was used for the growth of the tested microorganism.
(§2) The tested microorganisms were as follows. Thus, Lactobacillus fructivorans (IFO 13118) (testing microorganism A), Lactobacillus fructivorans (JCM 1198) (testing microorganism B) and Lactobacillus homohiochii (IFO 13120) (testing microorganism C) as true hiochi bacteria while Lactobacillus rhamnosus (IFO 3532) (testing microorganism D) was used as hiochi lactobacteria.

[6] = test system: Lactobacillus fructivorans (IFO 13118); assay: antibacterial activity to hiochi bacteria, microorganism A; format: cell-based; conditions: five days; for Growth Turbidity (OD600): control 0.96
Experimental: as §1, §2

[7] = test system: Helicobacter pylori strains NCTC 11637 (ATCC 43504), 206 and 3401; assay: MIC against Helicobacter pylori strains; format: cell-based; conditions: pH 6.0, 37° C., 3-4 days, all strains tested, read-out: MIC (90% or more inhibition)
Experimental: (4) As to Helicobacter pylori strains, a standard strain NCTC 11637 (ATCC 43504) and clinically isolated strains from human stomach (206 and 3401; both stored at Department of Bacteriology, Hyogo Medical College) were used. Each strain was subjected to a shake incubation at 37° C. under a slightly aerophilic condition using an Aneropack Campiro (manufactured by Mitsubishi Gas Chemical) in a Brucella Broth Medium (manufactured by BBL) containing 7% of horse serum (manufactured by Bio Whittaker). The microorganism in a logarithmic growth phase was diluted with a Brucella Broth and used for the test. A 24-well plate (manufacturedby Falcon) was used for the experiments. The cyclopentenone was charged at the rate of 0.1 ml (1,000 μg)/well, subjected to a two-step dilution using PBS and immobilized by adding 0.9 ml/well of a medium [a Brucella agar medium (pH 6.0) containing 7% of horse serum (manufactured by BBL)]. The Brucella agar medium was previously adjusted to pH 6.0 with HCl and was used for the experiments. Each microorganism was inoculated at the rate of about 10^4 /50 μl/well. […] The amount of a sample (μg/ml) showing 90% or more inhibition was defined as the MIC.

[8] = test system: Lactobacillus fructivorans (JCM 1198); assay: antibacterial activity to hiochi bacteria, microorganism B; format: cell-based; conditions: five days; for Growth Turbidity (OD600): control 2.03
Experimental: as §1, §2

[9] = stability of the cyclopentenone in solution (TLC)

Structure (SMILES): O=C1C=CC(O)C1O (centres unmarked) [the cyclopentenone, 4,5-dihydroxy-2-cyclopenten-1-one]
- MIC ([1]; 37° C., 24 hours, both strains, read-out: concentration showing antibacterial action (no growth)): 12.5 µg/mL (≈ 110 µM)
- MBC ([1]; 24 h, read-out: concentration showing bactericidal action): 50 µg/mL (≈ 438 µM)
- Inhibiting Rate (Meth A cells): 100.0%
- Tumor Weight (average ± SD) (Meth A cells; two weeks, n=8, control 1.41 ± 0.55): 0.00 ± 0.00 g
- Numbers of Tested Microorganism Cells after Incubation ([2]; 16 h, 0 ppm 7.4): 6.1 log10 CFU/mL
- Numbers of Tested Microorganism Cells after Incubation ([2]; 96 h, 0 ppm 8.6): 8.6 log10 CFU/mL
- increase in life span (Sarcoma-180): 148%
- mean survival days (Sarcoma-180; control 22.6 days): 33.4 days
- MIC [3]: ≥ 12.5 µg/mL
- toxicity (mice): not show toxicity
- antimicrobial activity [4]: antimicrobial activity at high concentrations
- Growth Turbidity (OD600) ([5]; 25 μg/ml): 0.32
- Growth Turbidity (OD600) ([5]; 50 μg/ml): 0.08
- Growth Turbidity (OD600) ([5]; 75 μg/ml): 0
- MIC ([5]; IFO13120, 120 h, read-out: concentration completely inhibiting growth): 75 µg/mL (≈ 657 µM)
- Growth Turbidity (OD600) ([6]; 25 μg/ml): 0.17
- Growth Turbidity (OD600) ([6]; 50 μg/ml): 0.02
- Growth Turbidity (OD600) ([6]; 75 μg/ml): 0
- MIC ([6]; Fructilactobacillus fructivorans, IFO13118, 120 h, read-out: concentration completely inhibiting growth): 75 µg/mL (≈ 657 µM)
- MIC [7]: 32 µg/mL (≈ 280 µM)
- Growth Turbidity (OD600) ([8]; 25 μg/ml): 0.01
- Growth Turbidity (OD600) ([8]; 50 μg/ml): 0
- Growth Turbidity (OD600) ([8]; 75 μg/ml): 0
- MIC ([8]; Fructilactobacillus fructivorans, JCM1198, 120 h, read-out: concentration completely inhibiting growth): 50 µg/mL (≈ 438 µM)
- stability ([9]; 25 mM in 10 mM tris (pH 10), room temperature, immediately after dissolution): rapid decomposition
- stability ([9]; in water, 121° C., 30 minutes): most of the cyclopentenone was left nondecomposed
